Laboratory results from patent US10988792B2, “Methods for antimicrobial resistance determination” (bioMerieux, Inc., priority 2009, dated 2021).

What was measured:
Assay type in all cases: cell-based
[1] = tested on: E. faecium #12406 (VRE); assay: Vancomycin MIC by VITEK 2; conditions: read-out: vancomycin MIC by VITEK 2
[2] = tested on: E. faecium 12480 (VSE); assay: Co-culture with vancomycin and Sytox Green, intrinsic fluorescence and membrane integrity of pellet; conditions: for Microbial NADH fluorescence (Ex340 nm/Em440 nm) / Microbial tryptophan fluorescence (Ex300 nm/Em360 nm): 12480 (VSE)
Experimental: For each test strain, a 1 μL loopful of colonies from a 24-48 hour plate was suspended in 10-12 mL of BacT/ALERT SA media and cultured for 4-9 hours at 37° C. Samples of each log phase culture were then incubated with 0, 0.25, 2.5 and 12.5 μg/mL of vancomycin-HCl in combination with 1:5000 dilution of stock Sytox Green, a viable cell impermeant DNA stain (Molecular Probes, cat #S7020), for a period of 4 hours at 37° C. Aliquots of the cultures were removed for analysis immediately (T0) and after 1, 2.5 and 4 hours.
(§1) At the appropriate time-point, 0.5 mL aliquots of the cultures (0.5 mL) were overlaid on a density cushion composed of 24% w/v CsCl in 10 mM Hepes, pH 7.4 and 0.005% Pluronic F-108 contained in custom-made optical centrifugation tubes as disclosed in related U.S. patent application, Ser. No. 12/589,969, entitled “Separation Device for Use in the Separation, Characterization and/or Identification of Microorganisms”, filed Oct. 30, 2009. The tubes were sealed and centrifuged at 10,000 rpm for 2 minutes to separate intact microorganisms from the culture medium and unbound chemicals. The tubes were then placed into a custom-built tube holder directly onto a fiber optic probe built into the base. The probe was attached to a FluoroLog 3 spectrofluorimeter. The tube was interrogated through its UV-transparent base, and fluorescence and diffuse reflectance readings collected.

[3] = tested on: E. faecium 13185 (VRE); assay: as above; conditions: 13185 (VRE)
Experimental: For each test strain, a 1 μL loopful of colonies from a 24-48 hour plate was suspended in 10-12 mL of BacT/ALERT SA media and cultured for 4-9 hours at 37° C. […] Aliquots of the cultures were removed for analysis immediately (T0) and after 1, 2.5 and 4 hours.
as §1

[4] = VSE strain 12480, vancomycin 2.5 and 12.5 μg/mL

With `CN[C@H](CC(C)C)C(=O)N[C@H]1C(=O)N[C@@H](CC(N)=O)C(=O)N[C@H]2C(=O)N[C@H]3C(=O)N[C@H](C(=O)N[C@H](C(=O)O)c4cc(O)cc(O)c4-c4cc3ccc4O)[C@H](O)c3ccc(c(Cl)c3)Oc3cc2cc(c3O[C@@H]2O[C@H](CO)[C@@H](O)[C@H](O)[C@H]2O[C@H]2C[C@](C)(N)[C@H](O)[C@H](C)O2)Oc2ccc(cc2Cl)[C@H]1O` [vancomycin] the MIC [1] was greater than 32 µg/mL, the “Microbial NADH fluorescence (Ex340 nm/Em440 nm)” value (“Microbial NADH fluorescence” for short) ([2]; Vanc. 0.25 μg/mL, 1 hour) was 271,470 and the “Microbial tryptophan fluorescence (Ex300 nm/Em360 nm)” value (“Microbial tryptophan fluorescence” for short) ([2]; Vanc. 0.25 μg/mL, 1 hour) was 460,266. The “Microbial NADH fluorescence” value ([2]; Vanc. 0.25 μg/mL, 2.5 hour) was 500,618, the “Microbial tryptophan fluorescence” value ([2]; Vanc. 0.25 μg/mL, 2.5 hour) was 678,352 and the “Microbial NADH fluorescence” value ([2]; Vanc. 0.25 μg/mL, 4 hour) was 483,445. The “Microbial tryptophan fluorescence” value ([2]; Vanc. 0.25 μg/mL, 4 hour) was 706,797, the “Microbial NADH fluorescence” value ([2]; Vanc. 0.25 μg/mL, Zero time) was 184,649 and the “Microbial tryptophan fluorescence” value ([2]; Vanc. 0.25 μg/mL, Zero time) was 425,539. The “Microbial NADH fluorescence” value ([2]; Vanc. 2.5 μg/mL, 1 hour) was 254,828, the “Microbial tryptophan fluorescence” value ([2]; Vanc. 2.5 μg/mL, 1 hour) was 438,541 and the “Microbial NADH fluorescence” value ([2]; Vanc. 2.5 μg/mL, 2.5 hour) was 149,686. For the same molecule, the “Microbial tryptophan fluorescence” value ([2]; Vanc. 2.5 μg/mL, 2.5 hour) was 466,525, the “Microbial NADH fluorescence” value ([2]; Vanc. 2.5 μg/mL, 4 hour) was 100,931 and the “Microbial tryptophan fluorescence” value ([2]; Vanc. 2.5 μg/mL, 4 hour) was 416,780. For the same molecule, the “Microbial NADH fluorescence” value ([2]; Vanc. 2.5 μg/mL, Zero time) was 221,692, the “Microbial tryptophan fluorescence” value ([2]; Vanc. 2.5 μg/mL, Zero time) was 361,962 and the “Microbial NADH fluorescence” value ([2]; Vanc. 12.5 μg/mL, 1 hour) was 210,963. For the same molecule, the “Microbial tryptophan fluorescence” value ([2]; Vanc. 12.5 μg/mL, 1 hour) was 428,402, the “Microbial NADH fluorescence” value ([2]; Vanc. 12.5 μg/mL, 2.5 hour) was 171,994 and the “Microbial tryptophan fluorescence” value ([2]; Vanc. 12.5 μg/mL, 2.5 hour) was 455,446. The “Microbial NADH fluorescence” value ([2]; Vanc. 12.5 μg/mL, 4 hour) was 127,042, the “Microbial tryptophan fluorescence” value ([2]; Vanc. 12.5 μg/mL, 4 hour) was 438,978 and the “Microbial NADH fluorescence” value ([2]; Vanc. 12.5 μg/mL, Zero time) was 178,982. For the same molecule, the “Microbial tryptophan fluorescence” value ([2]; Vanc. 12.5 μg/mL, Zero time) was 389,264, the “Course of cellular NADH levels” value [2, 4] was “gradually declined over time” and the “Course of cellular tryptophan levels” value [2, 4] was “remained stable over time”. The “Microbial NADH fluorescence” value ([3]; Vanc. 0.25 μg/mL, 1 hour) was 708,442, the “Microbial tryptophan fluorescence” value ([3]; Vanc. 0.25 μg/mL, 1 hour) was 557,453 and the “Microbial NADH fluorescence” value ([3]; Vanc. 0.25 μg/mL, 2.5 hour) was 496,545. For the same molecule, the “Microbial tryptophan fluorescence” value ([3]; Vanc. 0.25 μg/mL, 2.5 hour) was 809,317, the “Microbial NADH fluorescence” value ([3]; Vanc. 0.25 μg/mL, 4 hour) was 627,392 and the “Microbial tryptophan fluorescence” value ([3]; Vanc. 0.25 μg/mL, 4 hour) was 880,899. The “Microbial NADH fluorescence” value ([3]; Vanc. 0.25 μg/mL, Zero time) was 316,618, the “Microbial tryptophan fluorescence” value ([3]; Vanc. 0.25 μg/mL, Zero time) was 546,862 and the “Microbial NADH fluorescence” value ([3]; Vanc. 2.5 μg/mL, 1 hour) was 237,463. For the same molecule, the “Microbial tryptophan fluorescence” value ([3]; Vanc. 2.5 μg/mL, 1 hour) was 569,043, the “Microbial NADH fluorescence” value ([3]; Vanc. 2.5 μg/mL, 2.5 hour) was 965,305 and the “Microbial tryptophan fluorescence” value ([3]; Vanc. 2.5 μg/mL, 2.5 hour) was 489,661.
